Test results from patent US10231953B2, “Inhibitors of bromodomains” (Zenith Epigenetics Ltd., priority 2014, dated 2019).
Entries after “also recorded” stand apart in the source; their conditions may differ.

Legend:
[1] = tested on: hIL-6 mRNA; experiment: Inhibition of hIL-6 mRNA transcription in LPS-stimulated U937 cells; format: cell-based; settings: Homo sapiens, U-937; U937 cells differentiated with PMA, 1 h pretreatment, LPS 3 h; read-out: IL-6 activity
Experimental: Human leukemic monocyte lymphoma U937 cells (CRL-1593.2) were plated at a density of 3.2×10^4 cells per well in a 96-well plate in 100 μL RPMI-1640 containing 10% FBS and penicillin/streptomycin, and differentiated into macrophages for 3 days in 60 ng/mL PMA ([…]) at 37° C. in 5% CO2 prior to the addition of compound. The cells were pretreated for 1 h with increasing concentrations of test compound in 0.1% DMSO prior to stimulation with 1 ug/mL lipopolysaccharide from Escherichia coli. Triplicate wells were used for each concentration. The cells were incubated at 37° C., 5% CO2 for 3 h before the cells were harvested. At time of harvest, media was removed and cells were rinsed in 200 μL PBS. Cells were harvested using the mRNA Catcher PLUS kit according to manufacturer's instructions. The eluted mRNA was then used in a one-step quantitative real-time PCR reaction using components of the RNA UltraSense™ One-Step Kit (Life Technologies) together with Applied Biosystems TaqMan® primer-probes for hIL-6 and Cyclophilin. Real-time PCR plates were run on a ViiA™7 real time PCR machine (Applied Biosystems), data was analyzed, normalizing the Ct values for hIL-6 to an internal control, prior to determining the fold expression of each sample, relative to the control.

[2] = tested on: Human AML MV-4-11 cells; experiment: Inhibition of cell proliferation in cancer cell lines; format: cell-based; settings: MV4-11, 72 h
Experimental: MV4-11 cells (CRL-9591) were plated at a density of 5×10^4 cells per well in 96 well flat bottom plates and treated with increasing concentrations of test compound or DMSO (0.1%) in IMDM media containing 10% FBS and penicillin/streptomycin. Triplicate wells were used for each concentration and a well containing only media was used as a control. Plates were incubated at 37° C., 5% CO2 for 72 h before adding 20 μL of the CellTiter Aqueous One Solution (Promega) to each well and incubated at 37° C., 5% CO2 for an additional 3-4 h. The absorbance was read at 490 nm in a spectrophotometer and the percentage of cell titer relative to DMSO-treated cells was calculated after correcting for background by subtracting the blank well's signal. IC50 values were calculated using the GraphPad Prism software.

[3] = tested on: c-myc; experiment: Inhibition of cMYC expression in cancer cell lines (mRNA, real-time PCR); format: cell-based; settings: Human AML MV4-11 cells, 3 h
Experimental: MV4-11 cells (CRL-9591) were plated at a density of 2.5×10^4 cells per well in 96 well U-bottom plates and treated with increasing concentrations of test compound or DMSO) (0.1%) in IMDM media containing 10% FBS and penicillin/streptomycin, and incubated for 3 h at 37° C. Triplicate wells were used for each concentration. Cells were pelleted by centrifugation and harvested using the mRNA Catcher PLUS kit according to manufacturer's instructions. The eluted mRNA isolated was then used in a one-step quantitative real-time PCR reaction, using components of the RNA UltraSense™ One-Step Kit (Life Technologies) together with Applied Biosystems TaqMan® primer-probes for cMYC and Cyclophilin. Real-time PCR plates were run on a ViiA™7 real time PCR machine (Applied Biosystems), data was analyzed, normalizing the Ct values for cMYC to an internal control, prior to determining the fold expression of each sample, relative to the control.

[4] = biological target: T1, Brd4 bromodomain 1 (BRD4(1)) (Homo sapiens, UniProt O60885); experiment: Inhibition of tetra-acetylated histone H4 binding to BET bromodomain, HTRF/FRET; settings: HTRF, 2 h incubation at room temperature
T1 construct: made in house; host or cells: E. coli BL21(DE3)
Experimental: Proteins are cloned and overexpressed with a N-terminal 6×His tag, then purified by nickel affinity followed by size exclusion chromatography. Briefly, E. coli BL21(DE3) cells are transformed with a recombinant expression vector encoding N-terminally Nickel affinity tagged bromodomains from Brd2, Brd3, Brd4. Cell cultures were incubated at 37° C. with shaking to the appropriate density and induced overnight with IPTG. The supernatant of lysed cells was loaded onto Ni-IDA column for purification. Eluted protein was pooled, concentrated and further purified by size exclusion chromatography. Fractions representing monomeric protein were pooled, concentrated, aliquoted, and frozen at −80° C. for use in subsequent experiments.
Binding of tetra-acetylated histone H4 and BET bromodomains is confirmed by a Homogenous Time Resolved Fluorescence Resonance Energy Transfer (HTRF®) method, N-terminally His-tagged bromodomains (200 nM) and biotinylated tetra-acetylated historic H4 peptide (25-50 nM, Millipore) are incubated in the presence of Europium Cryptate-labeled streptavidin (Cisbio Cat. #610SAKLB) and XL665-labeled monoclonal anti-His antibody (Cisbio Cat. #61HISXLB) in a white 96 well microtiter plate (Greiner). For inhibition assays, serially diluted test compound is added to these reactions in a 0.2% final concentration of DMSO. Duplicate wells are used for each concentration tested. Final buffer concentrations are 30 mM HEPES pH 7.4, 30 mM NaCl, 0.3 mM CHAPS, 20 mM phosphate pH 7.0, 320 mM KF, 0.08% BSA. After a 2 h incubation at room temperature, fluorescence is measured at 665 and 620 nm with a SynergyH4 plate reader (Biotek). The binding inhibitory activity is shown by a decrease in 665 nm relative to 620 nm fluorescence. IC50 values are determined from a dose response curve.

[5] = tested on: MV4-11 cells; experiment: Washout proliferation: effect of covalent binding on durability of proliferation; format: cell-based, Human; settings: IC90 concentration for 24 h, then washout; for Percent proliferation relative to DMSO, 24 h: 24 h post washout; for Percent proliferation relative to DMSO, 48 h: 48 h post washout; for Percent proliferation relative to DMSO, 72 h: 72 h post washout
Experimental: MV4-11 cells (CRL-9591) were plated at a density of 5×10^4 cells per well in 96 well flat bottom plates and treated with IC90 concentration of covalent vs. non-covalent control compound or DMSO (0.1%) in IMDM media containing 10% FBS and penicillin/streptomycin. Triplicate wells were used for each concentration and a well containing only media is used as a control. Plates were incubated at 37° C., 5% CO2 for 24 h after which the compounds were removed, replaced with media, and proliferation was measured at 24, 48 and 72 hours post washout by adding 20 μL of the Cell Titer Aqueous One Solution (Promega) to each well and incubated at 37° C., 5% CO2 for an additional 3-4 h. The absorbance was read at 490 nm in a spectrophotometer and the percentage of cell titer relative to DMSO-treated cells was calculated after correcting for background by subtracting the blank well's signal. IC50 values are calculated using the GraphPad Prism software.

[6] = tested on: BET bromodomains; experiment: Thermal shift assay to monitor covalent binding to BET bromodomains; settings: 100 μM compound, 5 μM protein, 30 minutes or 4 hours at room temperature
Experimental: 5 μM of purified bromodomain protein was incubated with 5× SYPRO® Orange (Molecular Probes) at a final concentration of 20 mM HEPES pH 7.4, 100 mM NaCl in the presence of 100 μM compound or DMSO (0.2%) in a fast 96 well optical plate (Applied Biosystems). Samples were incubated at room temperature for 30 minutes or 4 hours and ramped from 25° C. to 95° C. in a ViiA7 real-time PCR machine (Applied Biosystems). The resulting fluorescence data was analyzed and melting temperatures calculated using Protein Thermal Shift™ Software v1.0 (Life Technologies). A thermal shift indicates covalent binding of the inhibitor to the protein.

Structure (SMILES) | IC50 [1] [µM] | IC50 [2] [µM] | IC50 [3] [µM] | IC50 [4] [µM] | Percent proliferation relative to DMSO, 0 h [5] [%] | Percent proliferation relative to DMSO, 24 h [5] [%] | Percent proliferation relative to DMSO, 48 h [5] [%] | Percent proliferation relative to DMSO, 72 h [5] [%] | Thermal shift: covalent binding to bromodomain protein [6]
Cc1noc(C)c1-c1ccc(=O)n(Cc2ccc(C3CO3)c(F)c2)c1 (stereo not drawn) [Example 1, 5-(Dimethyl-1,2-oxazol-4-yl)-1-(3-fluoro-4-(oxiran-2-yl)benzyl)pyridin-2(1H)-one] | 3 to 30 | 3 to 30 | 3 to 30 | ≤ 0.3 | 30 | 2 | 10 | 5 | bind covalently; also recorded: time-dependent formation of the covalent complex
Cc1noc(C)c1-c1cnc2nc(C)n(Cc3ccc(C(=O)CCl)cc3)c2c1 [Example 6, 2-Chloro-1-(4-((6-(3,5-dimethylisoxazol-4-yl)-2-methyl-1H-imidazo[4,5-b]pyridin-1-yl)methyl)phenyl)ethanone] |  |  |  | ≤ 0.3 |  |  |  |  | 
Cc1noc(C)c1-c1ccc(=O)n(Cc2ccc(C3CO3)cc2)c1 (stereo not drawn) [Example 2, 5-(dimethyl-1,2-oxazol-4-yl)-1-{[4-(oxiran-2-yl)phenyl]methyl}-1,2-dihydropyridin-2-one] | 3 to 30 | 3 to 30 | 3 to 30 | ≤ 0.3 |  |  |  |  | 
Cc1noc(C)c1-c1cc(N)c2ncn(Cc3ccc(C4CO4)cc3)c2c1 (stereo not drawn) [Example 4, 6-(Dimethyl-1,2-oxazol-4-yl)-1-{[4-(oxiran-2-yl)phenyl]methyl}-1H-1,3-benzodiazol-4-amine] | 0.3 to 3 | 0.3 to 3 | 0.3 to 3 | 0.3 to 3 | 41 | 0.2 | 15 | 13 | bind covalently; also recorded: time-dependent formation of the covalent complex
Cc1noc(C)c1-c1cc(N)c(=O)n(Cc2ccc(C3CO3)cc2)c1 (stereo not drawn) [Example 3, 3-amino-5-(3,5-dimethylisoxazol-4-yl)-1-(4-(oxiran-2-yl)benzyl)pyridin-2(1H)-one] | 0.3 to 3 | 3 to 30 | 3 to 30 | ≤ 0.3 |  |  |  |  | 
Cc1noc(C)c1-c1cnc2nc(C)n(Cc3ccc(CCCl)cc3)c2c1 [Example 5, 4-(1-(4-(2-Chloroethyl)benzyl)-2-methyl-1H-imidazo[4,5-b]pyridin-6-yl)-3,5-dimethylisoxazole] |  |  | 0.3 to 3 | ≤ 0.3 |  |  |  |  | 
Cc1noc(C)c1-c1cnc2nc(C)n(Cc3ccc(CC4CO4)cc3)c2c1 (stereo not drawn) [Example 7, 3,5-Dimethyl-4-(2-methyl-1-(4-(oxiran-2-ylmethyl)benzyl)-1H-imidazo[4,5-b]pyridin-6-yl)isoxazole] |  |  |  | ≤ 0.3 |  |  |  |  | 
